Results published in patent publication US20220112267A1, “PRODUCE AND ISOLATE AND/OR EXTRACT COLLAGEN AND/OR GELATIN FROM ANIMAL CELL LINES AND/OR TISSUE EXPLANTS” (Jellatech, Inc., priority 2020, published 2022).

Key:
Format in all cases: cell-based
various cell types = test: Effects of ginseng, palmitoleic acid and spirulina on collagen production in various cell types (FIG. 8-10)
From the text: (§1) Moreover, FIG. 8 depicts a graph showing effects of ginseng on collagen production in various cell types. FIG. 8 has an x-axis 802 associated with a cell type and a ginseng concentration in μg/mL and a […] measuring a collagen concentration 806 and a protein concentration 808.
(§2) Further, FIG. 9 depicts a graph showing effects of palmitoleic acid on collagen production in various cell types. FIG. 9 has an x-axis 902 associated with a cell type and a palmitoleic acid concentration in μg/mL and a y-axis 904 measuring a collagen concentration 906 and a protein concentration 908.
(§3) FIG. 10 depicts a graph showing effects of a spirulina extract on collagen production in various cell types. FIG. 10 has an x-axis 1002 associated with a cell type and a spirulina extract concentration in μg/mL and a y-axis 1004 measuring a collagen concentration 1006 and a protein concentration 1008.
(§4) However, a total protein content is increased in bovine cells.

bovine cells [1] = test: Effects of ginseng, palmitoleic acid and spirulina on total protein content in bovine cells (FIG. 8-10)
From the text: as §1, §2, §3, §4

bovine cells [2] = test: Collagen production under different concentrations of vitamin C, bovine cells (FIG. 7A, 7B); details: seeding density 40,000 or 70,000 cells/well, 96 well plate
From the text: (§5) In another example, a collagen detection method using a dual dye assay is described and depicted in FIG. 4. This method measures collagen content of samples using dyes in order to estimate collagen production of adherent cells in cultures without extracting the collagen. Samples may include bovine derma primary fibroblast cell lines or BJ human fibroblast/primary cells, among others not explicitly listed herein. Materials utilized in the method of FIG. 4 include: about 70% ethanol, sterile water, picric acid (or 2,4,6-trinitrophenol), about 0.1% Fast Green FCF solution in saturated picric acid, about 0.4% Fast Green FCF solution and about 0.11% Sirius Red in the saturated picric acid, and about 0.1% NaOH in methanol. The Fast Green FCF dye is used for total protein and the Sirius Red dye is used for collagen content determination. Equipment utilized with the method of FIG. 4 includes a laminar flow cabinet, a spectrophotometer, and a pipette. A process step 406 follows the process step 404 and includes adding a saturated solution of picric acid in distilled water containing a first amount of the Fast Green dye. In examples, the first amount of the Fast Green dye is about 0.01%. […] A process step 420 follows the process step 418 and includes utilizing the spectrophotometer to measure an absorbance at 540 nm and 630 nm. […]

human cells = test: Collagen production under different concentrations of vitamin C, human cells (FIG. 7C, 7D); details: seeding density 40,000 or 70,000 cells/well, 96 well plate
From the text: as §5

bovine cell lines = test: Factor supplementation, Sircol Collagen Assay, commercially available bovine cell lines; details: for collagen production: commercially available bovine cell lines, 3-10 days with factor
Experimental: (§6) In this embodiment, cells were seeded at approximately 3500-4500 cells per well of a 48 well-plate and were allowed to settle for about 48 hours before adding the factor. After about 48 hours, spent media was removed and replaced with growth media supplemented with the factor of interest. Cells continued to grow for about 3-10 days following initial introduction of the factor and a collagen content was quantified with a Sircol™ Collagen Assay. Additionally, experiments were conducted with and without media/factor replenishment about every 48-72 hours.

porcine cell line = test: Factor supplementation, Sircol Collagen Assay, commercially available porcine cell line; details: 3-10 days with factor
Experimental: as §6

human KEL-FIB cell line = test: Factor supplementation, Sircol Collagen Assay, human KEL-FIB cell line; details: for collagen production: 3-10 days with factor
Experimental: as §6

Compound: CCCCCC/C=C\CCCCCCCC(=O)O [palmitoleic acid]
- effect on collagen production (various cell types): do not have a large effect
- total protein content (bovine cells [1]): increased

Compound: O=C1O[C@H]([C@@H](O)CO)C(O)=C1O [vitamin C]
- concentration of vitamin C at which the highest collagen concentration resulted (bovine cells [2]): 10 to 100 mg/mL
- concentration of vitamin C at which the highest collagen concentration resulted (human cells): 10 to 100 mg/mL
- increase of collagen production (bovine cell lines; bovine cell lines): 28-36%
- collagen production (bovine cell lines): increased
- collagen production (porcine cell line): increased
- increase of collagen production (human KEL-FIB cell line): about 50%
- collagen production (human KEL-FIB cell line): increased

Compound: O=S(=O)([O-])[O-].[Zn+2] [zinc sulfate]
- collagen production (bovine cell lines): increased
- collagen production (porcine cell line): increased
- collagen production (human KEL-FIB cell line): increased
